Experimental data taken from US11214803B2, “Modulators of YAP1 expression” (Ionis Pharmaceuticals, Inc., priority 2019, dated 2022).
Strand notation (5' to 3'): a small letter for the sugar, then the base; units joined by * are phosphorothioate-linked, units joined directly phosphodiester-linked; [ ] holds rarer units or linkages, { } end groups; capitals alone tell only the bases. e = 2'-O-(2-methoxyethyl) (MOE); k = constrained ethyl (cEt); [5mC] = 5-methylcytosine; d = 2'-deoxy (DNA)

What was measured:
Type in all cases: cell-based
Yap1 mRNA [1] = assay: Antisense inhibition of human Yap1 in SNU-449 cells by modified oligonucleotides, single dose (Example 5, RTS36584); settings: for YAP1 (% UT): Yap1 mRNA, percent of untreated control, modified oligonucleotides targeting SEQ ID NO: 1 and 2, Table 47
Protocol: Modified oligonucleotides with additional chemistry modifications were designed to target a Yap1 nucleic acid and were tested for their effect on Yap1 mRNA level in SNU-449 cells. The modified oligonucleotides were tested in a series of experiments that had similar culture conditions. Cultured SNU-449 cells at a density of 10,000 cells per well were treated using free uptake with 2,000 nM of modified oligonucleotide. After a treatment period of approximately 48 hours, RNA was isolated from the cells and Yap1 mRNA levels were measured by quantitative real-time RTPCR. Human primer probe set RTS36584 was used to measure mRNA levels. Yap1 mRNA levels were normalized to total RNA content, as measured by RIBOGREEN®. Results are presented in the tables below as percent control of the amount of Yap1 mRNA relative to untreated control cells (% UTC). The modified oligonucleotides with percent control values marked with an asterisk (*) target the amplicon region of the primer probe set. Additional assays may be used to measure the potency and efficacy of the modified oligonucleotides targeting the amplicon region.
Several different chemistry modifications were tested, which are specified in the Chemistry Notation column of the tables below, wherein the notation “d” refers to a 2′-deoxyribose sugar, the notation “s” refers to a phosphorothioate (P═S) internucleoside linkage, the notation “k” refers to a cEt modified sugar, the notation “y” refers to a 2′-O-methyl ribose sugar, the notation “e” refers to a MOE modified sugar, and the notation “^mC” refers to a 5-methylcytosine.
“Start site” indicates the 5′-most nucleoside to which the gapmer is targeted in the human gene sequence. “Stop site” indicates the 3′-most nucleoside to which the gapmer is targeted human gene sequence. […] Activity of the modified oligonucleotide may be defined in a different experiment.

Yap1 mRNA [2] = assay: Antisense inhibition of human Yap1 in A-431 cells by cEt gapmers, single dose (Example 2, RTS4814); settings: 3-10-3 cEt gapmers targeting SEQ ID NO.: 1, and 2
Summary of the method: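 Free uptake, 2,000 nM, ~48 h, A-431 at 5,000 cells/well. Readout: RT-qPCR (RTS4814), RIBOGREEN-normalized, % UTC. 16-mer 3-10-3 cEt gapmers, full PS backbone, all C as 5-methylcytosine.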

Yap1 mRNA [3] = assay: Dose-dependent inhibition of human Yap1 in A-431 cells (Example 8, 10,000 cells per well, RTS4814); settings: free uptake, approximately 48 hours, RTS4814; for Yap1 mRNA, % UTC: A-431 cells, 10,000 cells per well; for IC50: A-431 cells, linear regression on log/linear plot
Summary of the method: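 Yap1 mRNA, normalized to RIBOGREEN total RNA and expressed as % untreated control, was read with RTS4814 about 48 h after free-uptake oligonucleotide treatment of A-431 cells at 10,000 cells/well. IC50 derived by linear regression of log/linear data.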

[4] = Yap1 mRNA as percent of untreated control, A-431 cells, Table 31
[5] = Table 33, Yap1 mRNA, percent of untreated control
[6] = Yap1 mRNA as percent of untreated control, A-431 cells, Table 30
[7] = Table 32, Yap1 mRNA, percent of untreated control

Substance | YAP1 (% UTC) (Yap1 mRNA [1]; Table 43 experiment, SNU-449 cells, 10,000 cells per well, free uptake, 2,000 nM, approximately 48 hours, RTS36584, Yap1 mRNA normalized to RIBOGREEN, relative to untreated control cells) | YAP1 (% UT) (Yap1 mRNA [1]) | YAP1 (% UTC) (Yap1 mRNA [2]; [4]) | Yap1 mRNA, % UTC (Yap1 mRNA [3]; 31.3 nM) | Yap1 mRNA, % UTC (Yap1 mRNA [3]; 125.0 nM) | Yap1 mRNA, % UTC (Yap1 mRNA [3]; 500.0 nM) | Yap1 mRNA, % UTC (Yap1 mRNA [3]; 2000.00 nM) | IC50 (Yap1 mRNA [3]) | YAP1 (% UTC) (Yap1 mRNA [2]; [5]) | YAP1 (% UTC) (Yap1 mRNA [2]; [6]) | YAP1 (% UTC) (Yap1 mRNA [2]; [7])
119825 4 (kA*kA*d[5mC]*dT*d[5mC]*dT*dT*dA*dT*dA*dT*eG*eG*eT*kT*kT; antisense) | 95 % UTC | – | – | – | – | – | – | – | – | – | –
1009324 (kA*kG*kT*dA*dT*dG*dT*dG*dG*d[5mC]*dA*dA*dT*kA*kA*kT; antisense) [Compound 1009324] | – | 27 % UT | – | – | – | – | – | – | – | – | –
1009325 (kA*kG*kA*dG*dT*dA*dT*dG*dT*dG*dG*d[5mC]*dA*kA*kT*kA; antisense) [Compound 1009325] | – | 16 % UT | – | – | – | – | – | – | – | – | –
1009326 (kT*kA*kT*dT*dA*dG*dA*dG*dT*dA*dT*dG*dT*kG*kG*k[5mC]; antisense) [Compound 1009326] | – | 10 % UT | – | – | – | – | – | – | – | – | –
1009327 (kA*kT*kA*dT*dT*dA*dG*dA*dG*dT*dA*dT*dG*kT*kG*kG; antisense) [Compound 1009327] | – | 27 % UT | – | – | – | – | – | – | – | – | –
1009328 (kT*kA*kT*dA*dT*dT*dA*dG*dA*dG*dT*dA*dT*kG*kT*kG; antisense) [Compound 1009328] | – | 67 % UT | – | – | – | – | – | – | – | – | –
1009394 (kT*kA*kT*dA*dA*d[5mC]*dT*dG*dG*dG*d[5mC]*dA*dA*kA*kT*kT; antisense) [Compound 1009394] | – | 73 % UT | – | – | – | – | – | – | – | – | –
1075249 (kA*kT*kT*dA*d[5mC]*dG*dA*dT*dT*dA*dG*dA*dT*k[5mC]*kA*kG; antisense) [compound 1075249] | – | – | 5 % UTC | 77 % UTC | 37 % UTC | 16 % UTC | 8 % UTC | 100 nM | – | – | –
1075699 (kG*kA*kT*dT*dT*dA*dT*dA*d[5mC]*dT*d[5mC]*dA*dG*kG*kT*kT; antisense) [compound 1075699] | – | – | – | 26 % UTC | 6 % UTC | 3 % UTC | 2 % UTC | < 20 nM | 4 % UTC | – | –
1075792 (kG*kA*kT*dT*dA*dG*dA*dA*dA*dG*dT*dG*d[5mC]*k[5mC]*kT*kT; antisense) [compound 1075792] | – | – | – | 79 % UTC | 41 % UTC | 15 % UTC | 10 % UTC | 100 nM | – | 6 % UTC | –
1075824 (kG*kT*kA*dT*dT*dA*dG*dA*dG*dG*dT*dT*d[5mC]*k[5mC]*kA*kG; antisense) [compound 1075824] | – | – | – | 33 % UTC | 10 % UTC | 5 % UTC | 3 % UTC | < 20 nM | – | 3 % UTC | –
1076017 (k[5mC]*kT*kA*dA*dT*dA*dG*dG*dA*dT*dG*dG*dA*kT*kT*k[5mC]; antisense) [compound 1076017] | – | – | 5 % UTC | 59 % UTC | 25 % UTC | 9 % UTC | 5 % UTC | 30 nM | – | – | –
1076049 (kA*kG*kA*dT*dT*dA*dA*dA*dG*dG*d[5mC]*dT*dG*kG*kA*kA; antisense) [compound 1076049] | – | – | 4 % UTC | 61 % UTC | 16 % UTC | 13 % UTC | 6 % UTC | < 20 nM | – | – | –
1076114 (kA*kT*kT*dA*dG*dT*dA*dA*dG*d[5mC]*dT*dG*dA*kG*kG*kA; antisense) [compound 1076114] | – | – | – | 34 % UTC | 11 % UTC | 6 % UTC | 5 % UTC | < 20 nM | – | – | 3 % UTC
1076115 (k[5mC]*kA*kT*dT*dA*dG*dT*dA*dA*dG*d[5mC]*dT*dG*kA*kG*kG; antisense) [compound 1076115] | – | – | – | 47 % UTC | 17 % UTC | 9 % UTC | 6 % UTC | < 20 nM | 7 % UTC | – | –
1076369 (antisense kT*kA*kT*dT*d[5mC]*dG*dG*dT*dA*dT*dT*dT*dT*k[5mC]*kT*kA) [compound 1076369] | – | – | 2 % UTC | 60 % UTC | 20 % UTC | 6 % UTC | 3 % UTC | < 20 nM | – | – | –
1076370 (antisense kG*kA*kT*dT*dA*dT*dT*d[5mC]*dG*dG*dT*dA*dT*kT*kT*kT) [compound 1076370] | – | – | – | 46 % UTC | 12 % UTC | 4 % UTC | 2 % UTC | < 20 nM | – | – | 2 % UTC
1076464 (k[5mC]*kA*kT*dA*dT*dA*d[5mC]*dA*dA*dT*dT*d[5mC]*dT*kG*k[5mC]*k[5mC]; antisense) [compound 1076464] | – | – | – | 36 % UTC | 10 % UTC | 3 % UTC | 2 % UTC | < 20 nM | – | 2 % UTC | –
1076465 (kG*k[5mC]*kT*dT*dA*dA*dG*dG*dA*dA*dT*dA*dT*kA*k[5mC]*kA; antisense) [compound 1076465] | – | – | 5 % UTC | 72 % UTC | 32 % UTC | 14 % UTC | 7 % UTC | 100 nM | – | – | –
1076466 (kA*kT*kT*dT*dA*dG*dA*dG*d[5mC]*dT*dT*dA*dA*kG*kG*kA; antisense) [compound 1076466] | – | – | – | 43 % UTC | 18 % UTC | 8 % UTC | 6 % UTC | < 20 nM | – | – | 5 % UTC
1076467 (kG*kT*kA*dT*dT*dT*dA*dG*dA*dG*d[5mC]*dT*dT*kA*kA*kG; antisense) [compound 1076467] | – | – | – | 24 % UTC | 6 % UTC | 3 % UTC | 2 % UTC | < 20 nM | 5 % UTC | – | –
1076530 (kA*kG*kT*dA*dT*dA*dA*dA*dG*d[5mC]*dA*dG*dG*kG*k[5mC]*kA; antisense) [compound 1076530] | – | – | – | 53 % UTC | 26 % UTC | 11 % UTC | 7 % UTC | < 20 nM | – | – | 5 % UTC
